Results as given in US20020111274A1, “1-alkyl-3-[1-(substituted phenyl) benzotriazol-6-yl] uracils” (BASF Aktiengesellschaft, priority 2000, published 2002).

What was measured:
Set-up in all cases: scale not given here
ABUTH Velvetleaf [1] = test: Postemergence herbicidal evaluation, ABUTH; format: in vivo, Abutilon theophrasti, Medic.; conditions: postemergence spray, rated about two-three weeks after treatment
In short: (§1)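 Postemergence spray, 40 psi nozzle, on ~2-week seedlings. Carrier: acetone/water 80/20, 1.0% methylated seed oil; dose ~0.006–0.400 kg/ha. Scored visually at 2–3 weeks.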

AMBEL Ragweed, Common [2] = test: Postemergence herbicidal evaluation, AMBEL; format: in vivo, Ambrosia artemisifolia, L.; conditions: postemergence spray, rated about two-three weeks after treatment
In short: as §1

CASOB Sicklepod [3] = test: Postemergence herbicidal evaluation, CASOB; format: in vivo, Cassia obtusifolia, L.; conditions: postemergence spray, rated about two-three weeks after treatment
In short: as §1

[4] = tested on: CHEAL Lambsquarters, Common; test: Postemergence herbicidal evaluation, CHEAL; format: in vivo, Chenopodium album, L.; conditions: postemergence spray, rated about two-three weeks after treatment
In short: as §1

ECHOG Barnyardgrass [5] = test: Postemergence herbicidal evaluation, ECHOG; format: in vivo, Echinochloa crus-galli, (L.) Beau; conditions: postemergence spray, rated about two-three weeks after treatment
In short: as §1

GALAP Galium [6] = test: Postemergence herbicidal evaluation, GALAP; format: in vivo, Galium aparine; conditions: postemergence spray, rated about two-three weeks after treatment
In short: as §1

[7] = tested on: IPOHE Morningglory, Ivyleaf; test: Postemergence herbicidal evaluation, IPOHE; format: in vivo, Ipomoea hederacea, (L.) Jacq.; conditions: postemergence spray, rated about two-three weeks after treatment
In short: as §1

SETVI Foxtail, Green [8] = test: Postemergence herbicidal evaluation, SETVI; format: in vivo, Setaria viridis, (L.) Beau; conditions: postemergence spray, rated about two-three weeks after treatment
In short: as §1

GLXMAW Soybean, Williams [9] = test: Postemergence herbicidal evaluation, GLXMAW; format: in vivo, Glycine max, (L.) Merr. cv Williams; conditions: postemergence spray, rated about two-three weeks after treatment
In short: as §1

[10] = tested on: TRZAWR Wheat, Winter, cv Riband; test: Postemergence herbicidal evaluation, TRZAWR; format: in vivo, Triticum aestivum; conditions: postemergence spray, rated about two-three weeks after treatment
In short: as §1

ORYSAT Rice, Tebonnet [11] = test: Postemergence herbicidal evaluation, ORYSAT; format: in vivo, Oryza sativa, (L.); conditions: postemergence spray, rated about two-three weeks after treatment
In short: as §1

ZEAMX Corn, Field [12] = test: Postemergence herbicidal evaluation, ZEAMX; format: in vivo, Zea mays, L. (Sammel-Bezeichnung); conditions: postemergence spray, rated about two-three weeks after treatment
In short: as §1

ABUTH Velvetleaf [13] = test: Preemergence herbicidal evaluation, ABUTH; format: in vivo, Abutilon theophrasti, Medic.; conditions: preemergence
In short: (§2)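 Seeds mixed with potting soil were planted on about one inch of soil in cups, then sprayed with the test compound in aqueous acetone at roughly 0.013 to 0.800 kg per hectare. Plants were kept under standard greenhouse care and injury was rated four to five weeks after treatment.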

AMBEL Ragweed, Common [14] = test: Preemergence herbicidal evaluation, AMBEL; format: in vivo, Ambrosia artemisifolia, L.; conditions: preemergence
In short: as §2

CASOB Sicklepod [15] = test: Preemergence herbicidal evaluation, CASOB; format: in vivo, Cassia obtusifolia, L.; conditions: preemergence
In short: as §2

[16] = tested on: CHEAL Lambsquarters, Common; test: Preemergence herbicidal evaluation, CHEAL; format: in vivo, Chenopodium album, L.; conditions: preemergence
In short: as §2

ECHOG Barnyardgrass [17] = test: Preemergence herbicidal evaluation, ECHOG; format: in vivo, Echinochloa crus-galli, (L.) Beau; conditions: preemergence
In short: as §2

GALAP Galium [18] = test: Preemergence herbicidal evaluation, GALAP; format: in vivo, Galium aparine; conditions: preemergence
In short: as §2

[19] = tested on: IPOHE Morningglory, Ivyleaf; test: Preemergence herbicidal evaluation, IPOHE; format: in vivo, Ipomoea hederacea, (L.) Jacq.; conditions: preemergence
In short: as §2

SETVI Foxtail, Green [20] = test: Preemergence herbicidal evaluation, SETVI; format: in vivo, Setaria viridis, (L.) Beau; conditions: preemergence
In short: as §2

GLXMAW Soybean, Williams [21] = test: Preemergence herbicidal evaluation, GLXMAW; format: in vivo, Glycine max, (L.) Merr. cv Williams; conditions: preemergence
In short: as §2

[22] = tested on: TRZAWR Wheat, Winter, cv Riband; test: Preemergence herbicidal evaluation, TRZAWR; format: in vivo, Triticum aestivum; conditions: preemergence
In short: as §2

ORYSAT Rice, Tebonnet [23] = test: Preemergence herbicidal evaluation, ORYSAT; format: in vivo, Oryza sativa, (L.); conditions: preemergence
In short: as §2

ZEAMX Corn, Field [24] = test: Preemergence herbicidal evaluation, ZEAMX; format: in vivo, Zea mays, L. (Sammel-Bezeichnung); conditions: preemergence
In short: as §2

COc1ccccc1-n1nnc2cc(F)c(-n3c(=O)cc(C(F)(F)F)n(C)c3=O)cc21 [Example 16, 3-[5-Fluoro-1-(2-Methoxyphenyl)-1H-1,2,3-Benzotriazol-6-yl]-1-Methyl-6-(Trifluoromethyl)-2,4(1H,3H)-Pyrmidinedione]
5.5: Postemergence herbicidal rating TRZAWR ([10]; 0.062 kg/ha) | Postemergence herbicidal rating ZEAMX (ZEAMX Corn, Field [12]; 0.008 kg/ha)
6.0: Postemergence herbicidal rating CASOB (CASOB Sicklepod [3]; 0.008 kg/ha) | Postemergence herbicidal rating CASOB (CASOB Sicklepod [3]; 0.016 kg/ha) | Postemergence herbicidal rating CASOB (CASOB Sicklepod [3]; 0.032 kg/ha) | Postemergence herbicidal rating CHEAL ([4]; 0.032 kg/ha) | Postemergence herbicidal rating GLXMAW (GLXMAW Soybean, Williams [9]; 0.032 kg/ha) | Postemergence herbicidal rating ZEAMX (ZEAMX Corn, Field [12]; 0.016 kg/ha) | Postemergence herbicidal rating ZEAMX (ZEAMX Corn, Field [12]; 0.032 kg/ha) | Postemergence herbicidal rating ZEAMX (ZEAMX Corn, Field [12]; 0.062 kg/ha) | AMBEL herbicidal rating (AMBEL Ragweed, Common [14]; rate 0.016 kg/ha) | TRZAWR herbicidal rating ([22]; rate 0.016 kg/ha)
3.0: Postemergence herbicidal rating ECHCG (ECHOG Barnyardgrass [5]; 0.032 kg/ha) | Postemergence herbicidal rating GALAP (GALAP Galium [6]; 0.016 kg/ha) | Postemergence herbicidal rating GALAP (GALAP Galium [6]; 0.032 kg/ha) | Postemergence herbicidal rating TRZAWR ([10]; 0.016 kg/ha) | Postemergence herbicidal rating ORYSAT (ORYSAT Rice, Tebonnet [11]; 0.016 kg/ha) | Postemergence herbicidal rating ORYSAT (ORYSAT Rice, Tebonnet [11]; 0.032 kg/ha) | IPOHE herbicidal rating ([19]; rate 0.016 kg/ha) | IPOHE herbicidal rating ([19]; rate 0.032 kg/ha)
0.0: Postemergence herbicidal rating GALAP (GALAP Galium [6]; 0.008 kg/ha) | CASOB herbicidal rating (CASOB Sicklepod [15]; rate 0.016 kg/ha) | CASOB herbicidal rating (CASOB Sicklepod [15]; rate 0.032 kg/ha) | GALAP herbicidal rating (GALAP Galium [18]; rate 0.016 kg/ha) | GALAP herbicidal rating (GALAP Galium [18]; rate 0.032 kg/ha)
5.0: Postemergence herbicidal rating CHEAL ([4]; 0.008 kg/ha) | Postemergence herbicidal rating CHEAL ([4]; 0.016 kg/ha) | Postemergence herbicidal rating ECHCG (ECHOG Barnyardgrass [5]; 0.062 kg/ha) | Postemergence herbicidal rating IPOHE ([7]; 0.008 kg/ha) | Postemergence herbicidal rating IPOHE ([7]; 0.016 kg/ha) | Postemergence herbicidal rating SETVI (SETVI Foxtail, Green [8]; 0.016 kg/ha) | Postemergence herbicidal rating GLXMAW (GLXMAW Soybean, Williams [9]; 0.008 kg/ha) | Postemergence herbicidal rating GLXMAW (GLXMAW Soybean, Williams [9]; 0.016 kg/ha)
9.0: Postemergence herbicidal rating ABUTH (ABUTH Velvetleaf [1]; 0.008 kg/ha) | Postemergence herbicidal rating ABUTH (ABUTH Velvetleaf [1]; 0.016 kg/ha) | Postemergence herbicidal rating ABUTH (ABUTH Velvetleaf [1]; 0.032 kg/ha) | Postemergence herbicidal rating ABUTH (ABUTH Velvetleaf [1]; 0.062 kg/ha) | Postemergence herbicidal rating AMBEL (AMBEL Ragweed, Common [2]; 0.016 kg/ha) | Postemergence herbicidal rating AMBEL (AMBEL Ragweed, Common [2]; 0.032 kg/ha) | Postemergence herbicidal rating AMBEL (AMBEL Ragweed, Common [2]; 0.062 kg/ha) | Postemergence herbicidal rating CASOB (CASOB Sicklepod [3]; 0.062 kg/ha) | Postemergence herbicidal rating IPOHE ([7]; 0.032 kg/ha) | Postemergence herbicidal rating IPOHE ([7]; 0.062 kg/ha) | Postemergence herbicidal rating SETVI (SETVI Foxtail, Green [8]; 0.062 kg/ha) | ABUTH herbicidal rating (ABUTH Velvetleaf [13]; rate 0.016 kg/ha) | ABUTH herbicidal rating (ABUTH Velvetleaf [13]; rate 0.032 kg/ha) | ABUTH herbicidal rating (ABUTH Velvetleaf [13]; rate 0.062 kg/ha) | ABUTH herbicidal rating (ABUTH Velvetleaf [13]; rate 0.125 kg/ha) | AMBEL herbicidal rating (AMBEL Ragweed, Common [14]; rate 0.032 kg/ha) | AMBEL herbicidal rating (AMBEL Ragweed, Common [14]; rate 0.062 kg/ha) | AMBEL herbicidal rating (AMBEL Ragweed, Common [14]; rate 0.125 kg/ha) | CASOB herbicidal rating (CASOB Sicklepod [15]; rate 0.062 kg/ha) | CASOB herbicidal rating (CASOB Sicklepod [15]; rate 0.125 kg/ha) | CHEAL herbicidal rating ([16]; rate 0.016 kg/ha) | CHEAL herbicidal rating ([16]; rate 0.032 kg/ha) | CHEAL herbicidal rating ([16]; rate 0.062 kg/ha) | CHEAL herbicidal rating ([16]; rate 0.125 kg/ha) | ECHCG herbicidal rating (ECHOG Barnyardgrass [17]; rate 0.016 kg/ha) | ECHCG herbicidal rating (ECHOG Barnyardgrass [17]; rate 0.032 kg/ha) | ECHCG herbicidal rating (ECHOG Barnyardgrass [17]; rate 0.062 kg/ha) | ECHCG herbicidal rating (ECHOG Barnyardgrass [17]; rate 0.125 kg/ha) | GALAP herbicidal rating (GALAP Galium [18]; rate 0.062 kg/ha) | GALAP herbicidal rating (GALAP Galium [18]; rate 0.125 kg/ha) | IPOHE herbicidal rating ([19]; rate 0.062 kg/ha) | IPOHE herbicidal rating ([19]; rate 0.125 kg/ha) | SETVI herbicidal rating (SETVI Foxtail, Green [20]; rate 0.016 kg/ha) | SETVI herbicidal rating (SETVI Foxtail, Green [20]; rate 0.032 kg/ha) | SETVI herbicidal rating (SETVI Foxtail, Green [20]; rate 0.062 kg/ha) | SETVI herbicidal rating (SETVI Foxtail, Green [20]; rate 0.125 kg/ha) | GLXMAW herbicidal rating (GLXMAW Soybean, Williams [21]; rate 0.016 kg/ha) | GLXMAW herbicidal rating (GLXMAW Soybean, Williams [21]; rate 0.032 kg/ha) | GLXMAW herbicidal rating (GLXMAW Soybean, Williams [21]; rate 0.062 kg/ha) | GLXMAW herbicidal rating (GLXMAW Soybean, Williams [21]; rate 0.125 kg/ha) | TRZAWR herbicidal rating ([22]; rate 0.125 kg/ha) | ORYSAT herbicidal rating (ORYSAT Rice, Tebonnet [23]; rate 0.062 kg/ha) | ORYSAT herbicidal rating (ORYSAT Rice, Tebonnet [23]; rate 0.125 kg/ha)
7.5: Postemergence herbicidal rating GLXMAW (GLXMAW Soybean, Williams [9]; 0.062 kg/ha)
2.5: Postemergence herbicidal rating TRZAWR ([10]; 0.008 kg/ha) | Postemergence herbicidal rating ORYSAT (ORYSAT Rice, Tebonnet [11]; 0.008 kg/ha)
7.0: Postemergence herbicidal rating SETVI (SETVI Foxtail, Green [8]; 0.032 kg/ha) | ORYSAT herbicidal rating (ORYSAT Rice, Tebonnet [23]; rate 0.016 kg/ha) | ORYSAT herbicidal rating (ORYSAT Rice, Tebonnet [23]; rate 0.032 kg/ha) | ZEAMX herbicidal rating (ZEAMX Corn, Field [24]; rate 0.032 kg/ha)
2.0: Postemergence herbicidal rating AMBEL (AMBEL Ragweed, Common [2]; 0.008 kg/ha) | Postemergence herbicidal rating ECHCG (ECHOG Barnyardgrass [5]; 0.008 kg/ha) | Postemergence herbicidal rating ECHCG (ECHOG Barnyardgrass [5]; 0.016 kg/ha) | Postemergence herbicidal rating SETVI (SETVI Foxtail, Green [8]; 0.008 kg/ha)
3.5: Postemergence herbicidal rating TRZAWR ([10]; 0.032 kg/ha)
4.0: Postemergence herbicidal rating GALAP (GALAP Galium [6]; 0.062 kg/ha) | Postemergence herbicidal rating ORYSAT (ORYSAT Rice, Tebonnet [11]; 0.062 kg/ha)
8.0: Postemergence herbicidal rating CHEAL ([4]; 0.062 kg/ha) | TRZAWR herbicidal rating ([22]; rate 0.032 kg/ha) | TRZAWR herbicidal rating ([22]; rate 0.062 kg/ha) | ZEAMX herbicidal rating (ZEAMX Corn, Field [24]; rate 0.016 kg/ha) | ZEAMX herbicidal rating (ZEAMX Corn, Field [24]; rate 0.062 kg/ha) | ZEAMX herbicidal rating (ZEAMX Corn, Field [24]; rate 0.125 kg/ha)
